Laboratory results reported in PubChem BioAssay (NCI).
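48-hour exposure; five concentrations; linearly interpolated endpoints. TGI: concentration producing complete growth inhibition.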

Legend:
Experiment in all cases: growth of human tumour cells (NCI), 48 h
[1] = system: A549 NSCLC
[2] = system: ACHN renal
[3] = system: CCRF-CEM leukemia
[4] = system: COLO 205 colon
[5] = system: DMS 114 small cell lung
[6] = system: DMS 273 small cell lung
[7] = system: EKVX NSCLC
[8] = system: HCC-2998 colon
[9] = system: HCT-116 colon
[10] = system: HCT-15 colon
[11] = system: HL-60(TB) leukemia
[12] = system: HOP-18 NSCLC
[13] = system: HOP-62 NSCLC
[14] = system: HOP-92 NSCLC
[15] = system: HT29 colon
[16] = system: IGROV1 ovarian
[17] = system: K-562 leukemia
[18] = system: KM12 colon
[19] = system: KM20L2 colon
[20] = system: LOX IMVI melanoma
[21] = system: LXFL 529 NSCLC
[22] = system: M14 melanoma
[23] = system: M19-MEL melanoma
[24] = system: MOLT-4 leukemia
[25] = system: NCI-H23 lung
[26] = system: NCI-H460 lung
[27] = system: OVCAR-3 ovarian
[28] = system: OVCAR-4 ovarian
[29] = system: OVCAR-5 ovarian
[30] = system: OVCAR-8 ovarian
[31] = system: RPMI-8226 leukemia
[32] = system: RXF 393 renal
[33] = system: SF-268 CNS
[34] = system: SF-539 CNS
[35] = system: SK-MEL-2 melanoma
[36] = system: SK-MEL-28 melanoma
[37] = system: SK-MEL-5 melanoma
[38] = system: SN12C renal
[39] = system: SNB-19 CNS
[40] = system: SNB-75 CNS
[41] = system: SNB-78 CNS
[42] = system: SR leukemia
[43] = system: SW-620 colon
[44] = system: TK-10 renal
[45] = system: U251 CNS
[46] = system: UACC-257 melanoma
[47] = system: UACC-62 melanoma
[48] = system: UO-31 renal
[49] = system: 786-0 renal
[50] = system: A498 renal
[51] = system: CAKI-1 renal
[52] = system: DLD-1 colon
[53] = system: MALME-3M melanoma
[54] = system: NCI-H226 lung
[55] = system: NCI-H522 lung
[56] = system: RXF-631 renal
[57] = system: SF-295 CNS
[58] = system: SK-OV-3 ovarian
[59] = system: XF 498 CNS

Measured: TGI

COc1ccc(C2=NN(c3nsc4ccccc34)C(=O)CC2)cc1
not listed: [49] | [50] | [51] | [52] | [53] | [54] | [55] | [56] | [57] | [58] | [59]
> 100 µM: all other assays above

Cc1nc(-n2nc(-c3ccccc3)cc2-c2ccccc2)sc1C(=O)CC(=O)C(=O)Nc1ccc(O)cc1
not listed: [14] | [23] | [26] | [36] | [37] | [59]
> 100 µM: all other assays above

CC1(C2CCC3(C)C(C2)C3Sc2ccccc2)OCCO1 (stereo not drawn)
31.4 µM: [48]
29.7 µM: [11]
41.5 µM: [46]
68 µM: [1]
35.8 µM: [4]
39.2 µM: [8]
67.3 µM: [34]
92.2 µM: [52]
63.6 µM: [36]
40.3 µM: [3]
43.7 µM: [17]
34 µM: [9] | [37]
36.4 µM: [50]
79.2 µM: [18]
41.4 µM: [15]
43.1 µM: [47]
32.7 µM: [31]
46.9 µM: [2]
66.2 µM: [7]
47.1 µM: [5]
88.6 µM: [58]
40.7 µM: [59]
41.8 µM: [53]
51.4 µM: [51]
46.5 µM: [26] | [57]
32.4 µM: [32]
60 µM: [6]
38.4 µM: [24]
45.8 µM: [13]
81.7 µM: [28]
40.9 µM: [55]
50.1 µM: [43]
66.3 µM: [25]
30 µM: [27]
33.3 µM: [49]
82.6 µM: [39]
56 µM: [14]
42.8 µM: [45]
49.6 µM: [20]
46.8 µM: [38]
34.3 µM: [35]
49.9 µM: [29]
40.6 µM: [23]
not listed: [12] | [19] | [42] | [54] | [56]
> 100 µM: all other assays above

COC(=O)C(C)Oc1ccc(O)cc1 (stereo not drawn)
62 µM: [36]
40.3 µM: [9]
34.7 µM: [5]
44.5 µM: [33]
not listed: [20] | [24] | [32] | [35] | [42] | [59]
> 100 µM: all other assays above
